Source: ChEMBL document CHEMBL1201862, “PubChem BioAssay data set” (2004)
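How tested: cells in 96-well plates exposed to compound for 48 hours at five concentrations. The concentration for 50% growth inhibition is given as GI50.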 The source made the active and inactive calls. Rule as the data show it: active = GI50 up to about 1.1 µM and inactive = higher.

Columns and labels:
Test in all cases: NCI tumour cell line growth inhibition, 48 h
[1] = system: A498
[2] = system: A549
[3] = system: COLO 205
[4] = system: DU-145
[5] = system: HCT-116
[6] = system: HL-60
[7] = system: KM12
[8] = system: NCI-H23
[9] = system: OVCAR-3
[10] = system: OVCAR-4
[11] = system: OVCAR-5
[12] = system: OVCAR-8
[13] = system: RPMI-8226
[14] = system: SF-295
[15] = system: SK-MEL-28
[16] = system: SNB-75
[17] = system: NCI-H226
[18] = system: UACC-62

Measured: GI50

O=C(Nc1cccc(C(F)(F)F)c1)O/N=C(/Cl)CCl
inactive: [1] > 100 µM | [2] > 100 µM | [3] 67.5 µM | [4] > 100 µM | [5] 55.7 µM | [6] 16.8 µM | [7] > 100 µM | [8] 47.3 µM | [9] 38.9 µM | [10] 63.2 µM | [11] 21.8 µM | [12] > 100 µM | [13] 27 µM | [14] 49.5 µM | [15] 41.5 µM | [16] > 100 µM

CSc1nc(NC2OCC(OC(C)=O)C(OC(C)=O)C2OC(C)=O)c(/N=C(\C)C(C)=O)c(=O)n1C (stereo not given)
inactive: [1] > 100 µM | [2] > 100 µM | [3] > 100 µM | [5] > 100 µM | [6] > 100 µM | [7] > 100 µM | [17] > 100 µM | [8] > 100 µM | [9] > 100 µM | [10] > 100 µM | [11] > 100 µM | [12] > 100 µM | [13] > 100 µM | [14] > 100 µM | [16] > 100 µM | [18] > 100 µM

COc1ccc(-c2cc(=O)c3c(O)c(OC)c(O)c(OC)c3o2)cc1OC
inactive: [1] 36.4 µM | [2] 72.1 µM | [3] 92.3 µM | [5] 57 µM | [6] 41.3 µM | [17] 22.2 µM | [8] > 100 µM | [10] > 100 µM | [12] > 100 µM | [13] 46 µM | [14] > 100 µM | [15] > 100 µM | [16] 21.8 µM | [18] 47.4 µM

CC(=O)OC1CC2C(C)(C)OC(=O)CC(OC(C)=O)[C@]2(C)C2CCC3(C)C(=CCC3c3ccoc3)[C@]12C (stereo not given in full)
inactive: [1] 17.6 µM | [2] 19.4 µM | [3] 14.1 µM | [5] 14.4 µM | [6] 16.1 µM | [7] 30.6 µM | [17] 14.9 µM | [8] 27.2 µM | [9] 16.2 µM | [10] 46.5 µM | [11] 32.8 µM | [12] 18.1 µM | [13] 18.2 µM | [14] 18 µM | [15] 94.6 µM | [16] 18.3 µM | [18] 22.2 µM

CCCC1=C(CC)C(C(=O)Nc2c(C)cccc2C)=NC(S)N1 (stereo not given)
inactive: [1] > 100 µM | [2] > 100 µM | [3] > 100 µM | [5] > 100 µM | [6] > 100 µM | [7] > 100 µM | [17] > 100 µM | [8] > 100 µM | [9] > 100 µM | [10] > 100 µM | [11] > 100 µM | [12] > 100 µM | [13] > 100 µM | [14] > 100 µM | [15] > 100 µM | [16] 59 µM | [18] > 100 µM

COC(=O)CCC(=O)CC1CC(=O)C2CCCN12 (stereo not given)
inactive: [1] > 100 µM | [2] > 100 µM | [3] > 100 µM | [5] > 100 µM | [6] > 100 µM | [7] > 100 µM | [17] > 100 µM | [8] > 100 µM | [9] > 100 µM | [10] > 100 µM | [11] > 100 µM | [12] > 100 µM | [13] > 100 µM | [14] > 100 µM | [15] > 100 µM | [16] > 100 µM | [18] > 100 µM

O=C1NC2C(=O)N(Cc3ccccc3)C(=O)C2N1 (stereo not given)
inactive: [1] > 100 µM | [2] > 100 µM | [3] > 100 µM | [5] > 100 µM | [6] > 100 µM | [7] > 100 µM | [17] > 100 µM | [8] > 100 µM | [9] > 100 µM | [10] > 100 µM | [11] > 100 µM | [13] > 100 µM | [14] > 100 µM | [15] > 100 µM | [16] > 100 µM | [18] > 100 µM

Nc1cc2c3c(cccc3c1)C(=O)N(CCN1CCN(CCN3C(=O)c4cccc5cc(N)cc(c45)C3=O)CC1)C2=O
inactive: [1] > 100 µM | [2] 46.3 µM | [3] > 100 µM | [5] 67.6 µM | [6] > 100 µM | [7] > 100 µM | [17] 31.5 µM | [8] > 100 µM | [9] > 100 µM | [10] > 100 µM | [11] > 100 µM | [12] 74.3 µM | [13] > 100 µM | [14] 97.1 µM | [15] > 100 µM | [16] > 100 µM | [18] > 100 µM
